Results as given in patent publication US4760136A, “Chartreusin derivatives and salts thereof” (Ishihara Sangyo Kaisha, Ltd., priority 1984, dated 1988).

What was measured:
P-388 leukemia cells = assay: Antitumor activity: P-388 leukemia cells inoculated intraperitoneally, drug administered intravenously, BDF1 mice; format: in vivo; conditions: BDF1 mice, P-388 i.p.; for response vs control in vivo at 80 mg/kg: dose f: 80 mg/kg × 3, i.v. on days 1, 5 and 9; for response vs control in vivo at 50 mg/kg: dose d: 50 mg/kg × 3, i.v. on days 1, 5 and 9; for response vs control in vivo at 10 mg/kg: dose a: 10 mg/kg × 3, i.v. on days 1, 5 and 9
Procedure: Into BDF1 mice were inoculated intraperitoneally P-388 leukemia cells at a rate of 1×10^6 cells/mouse, and each drug to be tested was administered intravenously on the first, fifth and ninth days after the inoculation. […] The drugs were as follows solutions prepared by adding physiological saline to each of compound Nos. 8, 9, 10, 11, 17, 34, 42, 59, 80 and 134; suspensions prepared by dispersing each of compound Nos. 41, 78, 98, 100, 130, 191, 212, 213, 215, 227 and 230 to 232 and a small amount of sodium carboxymethyl cellulose (Na.CMC) in physiological saline, […]

[1] = Acute toxicity, intravenous (once), ddY mice; format: in vivo; conditions: mouse, in vivo, iv, formulated per Preparation Example
Description: In Table 7 are shown acute toxicity values (LD50, mg/kg) in ddY mice in the case of intravenously administering (once) each of the compounds of this invention in the form of preparations shown in the Preparation Examples shown in Table 7.

[2] = Mus musculus, P388, iv, dose c: 40 mg/kg × 3, i.v. on days 1, 5 and 9, read-out: T/C (%) of MST
[3] = Mus musculus, P388, iv, read-out: T/C (%) of MST
[4] = Mus musculus, P388, iv, dose b: 20 mg/kg × 3, i.v. on days 1, 5 and 9, read-out: T/C (%) of MST
[5] = dose c: 40 mg/kg × 3, i.v. on days 1, 5 and 9

Row | SMILES | response vs control in vivo at 40 mg/kg (P-388 leukemia cells; [2]) | LD50 [1] | response vs control in vivo at 20 mg/kg (P-388 leukemia cells; [4]) | further results
1 | COC1C(O)C(C)OC(OC2C(Oc3cccc4c(OC(=O)CCNC=O)c5c(=O)oc6ccc(C)c7c(=O)oc(c34)c5c67)OC(C)C3OC(c4ccco4)OC32)C1O (stereo not shown) [compound 84] | 145% | ≥ 80 mg/kg | – | response vs control in vivo at 80 mg/kg (P-388 leukemia cells; [3]): 208%
2 | COC1C(O)C(C)OC(OC2C(Oc3cccc4c(OC(=O)CNC(=O)CNC(=O)CNC(=O)OCc5ccccc5)c5c(=O)oc6ccc(C)c7c(=O)oc(c34)c5c67)OC(C)C3OC(c4ccccc4)OC32)C1O (stereo not shown) [Compound No. 114, 6-O-(N-Carbobenzyloxy-Glycyl-Glycyl-Glycyl)-3',4'-O-Benzylidene-Chartreusin] | 130% | ≥ 40 mg/kg | – | –
3 | COC1C(O)C(C)OC(OC2C(Oc3cccc4c(OC(=O)CCC(C)=O)c5c(=O)oc6ccc(C)c7c(=O)oc(c34)c5c67)OC(C)C3OC(c4ccccc4)OC32)C1O (stereo not shown) [Compound No. 153] | 243% | ≥ 40 mg/kg | 203% | –
4 | CO[C@H]1[C@@H](O)[C@@H](C)O[C@H](O[C@H]2[C@H](Oc3cccc4c(OC(=O)C5CC5)c5c(=O)oc6ccc(C)c7c(=O)oc(c34)c5c67)O[C@H](C)[C@@H]3OC(C)(C)O[C@@H]32)[C@@H]1O [Compound No. 177] | 153% | ≥ 80 mg/kg | – | response vs control in vivo at 80 mg/kg (P-388 leukemia cells; [3]): 208%
5 | COC1C(O)C(C)OC(OC2C(Oc3cccc4c(OC(=O)C(C)CNC(=O)OCc5ccccc5)c5c(=O)oc6ccc(C)c7c(=O)oc(c34)c5c67)OC(C)C3OC(c4cccc(F)c4)OC32)C1O (stereo not shown) [Compound No. 60] | 210% | ≥ 40 mg/kg | 176% | –
6 | COC1C(O)C(C)OC(OC2C(Oc3cccc4c(OC(=O)CCC5CCCCC5)c5c(=O)oc6ccc(C)c7c(=O)oc(c34)c5c67)OC(C)C3OC(C)(C)OC32)C1O (stereo not shown) [Compound No. 240, 6-O-(3-Cryclohexyl-Propionyl)-3',4'-O-Isopropylidene-Chartreusin] | – | ≥ 60 mg/kg | – | response vs control in vivo at 60 mg/kg (P-388 leukemia cells; Mus musculus, P388, iv, dose e: 60 mg/kg × 3, i.v. on days 1, 5 and 9, read-out: T/C (%) of MST): 158%
7 | COC1C(O)C(C)OC(OC2C(Oc3cccc4c(OC(=O)CCNC=O)c5c(=O)oc6ccc(C)c7c(=O)oc(c34)c5c67)OC(C)C3OC(c4cccc([N+](=O)[O-])c4)OC32)C1O (stereo not shown) [compound 120] | 148% | ≥ 40 mg/kg | – | –
8 | CCCCCCCCCC(=O)Oc1c2cccc(OC3OC(C)C4OC(C)(C)OC4C3OC3OC(C)C(O)C(OC)C3O)c2c2oc(=O)c3c(C)ccc4oc(=O)c1c2c43 (stereo not shown) [compound 220] | – | ≥ 60 mg/kg | – | response vs control in vivo at 50 mg/kg (P-388 leukemia cells; [3]): 157%
9 | COC1C(O)C(C)OC(OC2C(Oc3cccc4c(OC(=O)C(CC[S+](C)[O-])NC(=O)OCc5ccccc5)c5c(=O)oc6ccc(C)c7c(=O)oc(c34)c5c67)OC(C)C3OC(C)(C)OC32)C1O (stereo not shown) [compound 102] | – | ≥ 100 mg/kg | – | response vs control in vivo at 80 mg/kg (P-388 leukemia cells; [3]): 187%
10 | COC1C(O)C(C)OC(OC2C(Oc3cccc4c(OC(=O)C(C)CNC(=O)OCc5ccccc5)c5c(=O)oc6ccc(C)c7c(=O)oc(c34)c5c67)OC(C)C3OC(c4ccccc4)OC32)C1O (stereo not drawn) [Compound No. 69, 6-O-(N-Carbobenzyloxy-β-Amino-Isobutyryl)-3,4-O-Benzylidene-Chartreusin] | 222% | ≥ 40 mg/kg | 179% | –
11 | COC1C(O)C(C)OC(OC2C(Oc3cccc4c(OC(=O)CC[N+](=O)[O-])c5c(=O)oc6ccc(C)c7c(=O)oc(c34)c5c67)OC(C)C3OC(c4ccccc4)OC32)C1O (stereo not shown) [Compound No. 166] | – | ≥ 30 mg/kg | – | response vs control in vivo at 10 mg/kg (P-388 leukemia cells; [3]): 138%
12 | COC1C(O)C(C)OC(OC2C(Oc3cccc4c(OC(=O)C(C)CNC(=O)C(F)(F)F)c5c(=O)oc6ccc(C)c7c(=O)oc(c34)c5c67)OC(C)C3OC(c4ccccc4)OC32)C1O (stereo not drawn) [Compound No. 12, 6-O-(N-Trifluoroacetyl-β-Amino-Isobutyryl)-3',4'-O-Benzylidene-Chartreusin] | – | ≥ 40 mg/kg | 203% | T/C (%) of MST (P-388 leukemia cells; [5]): 241%
13 | COC1C(O)C(C)OC(OC2C(Oc3cccc4c(OC(=O)CC(C)NC(=O)C(F)(F)F)c5c(=O)oc6ccc(C)c7c(=O)oc(c34)c5c67)OC(C)C3OC(c4ccccc4)OC32)C1O (stereo not shown) [Compound No. 39] | 214% | ≥ 40 mg/kg | 165% | –
14 | COC1C(O)C(C)OC(OC2C(Oc3cccc4c(OC(=O)CCNC(C)=O)c5c(=O)oc6ccc(C)c7c(=O)oc(c34)c5c67)OC(C)C3OC(c4ccccc4)OC32)C1O (stereo not shown) [Compound No. 38] | – | ≥ 40 mg/kg | 203% | –
15 | COC1C(O)C(C)OC(OC2C(Oc3cccc4c(OC(=O)C(NC(=O)OCc5ccccc5)C(C)C)c5c(=O)oc6ccc(C)c7c(=O)oc(c34)c5c67)OC(C)C3OC(c4ccccc4Cl)OC32)C1O (stereo not shown) [compound 105] | – | ≥ 80 mg/kg | – | response vs control in vivo at 80 mg/kg (P-388 leukemia cells; [3]): 216%
16 | COC1C(O)C(C)OC(OC2C(Oc3cccc4c(OC(=O)CCNC(=O)CN)c5c(=O)oc6ccc(C)c7c(=O)oc(c34)c5c67)OC(C)C3OC(c4cccc(F)c4)OC32)C1O (stereo not drawn) [compound 33, 6-O-(glycyl-β-alanyl)-3',4'-O-(m-fluorobenzylidene)-chartreusin phosphate] | – | ≥ 40 mg/kg | 186% | response vs control in vivo at 10 mg/kg (P-388 leukemia cells; [3]): 157%
17 | COC1C(O)C(C)OC(OC2C(Oc3cccc4c(OC(=O)CCNC=O)c5c(=O)oc6ccc(C)c7c(=O)oc(c34)c5c67)OC(C)C3OC(c4c(F)c(F)c(F)c(F)c4F)OC32)C1O (stereo not shown) [compound 113] | 138% | ≥ 40 mg/kg | – | –
18 | COC1C(O)C(C)OC(OC2C(Oc3cccc4c(OC(=O)CCNC(=O)C(Cl)(Cl)Cl)c5c(=O)oc6ccc(C)c7c(=O)oc(c34)c5c67)OC(C)C3OC(C)(C)OC32)C1O (stereo not drawn) [Compound No. 112, 6-O-(N-Trichloroacetyl-β-Alanyl)-3',4'-O-Isopropylidene-Chartreusin] | – | ≥ 100 mg/kg | – | response vs control in vivo at 50 mg/kg (P-388 leukemia cells; [3]): 148%
19 | COC1C(O)C(C)OC(OC2C(Oc3cccc4c(OC(=O)CCN)c5c(=O)oc6ccc(C)c7c(=O)oc(c34)c5c67)OC(C)C3OC(c4ccccc4)OC32)C1O (stereo not shown) [Compound No. 18] | – | ≥ 40 mg/kg | – | T/C (%) of MST (P-388 leukemia cells; dose b: 20 mg/kg × 3, i.v. on days 1, 5 and 9): 196%; T/C (%) of MST (P-388 leukemia cells; [5]): 238%
20 | CO[C@H]1[C@@H](O)[C@@H](C)O[C@H](O[C@H]2[C@H](Oc3cccc4c(OC(=O)C=C(C)C(F)(F)F)c5c(=O)oc6ccc(C)c7c(=O)oc(c34)c5c67)O[C@H](C)[C@@H]3OC(C)(C)O[C@@H]32)[C@@H]1O [compound 198] | 176% | ≥ 80 mg/kg | – | –
21 | COC1C(O)C(C)OC(OC2C(Oc3cccc4c(OC(=O)CC(C)C)c5c(=O)oc6ccc(C)c7c(=O)oc(c34)c5c67)OC(C)C3OC(c4ccccc4)OC32)C1O (stereo not shown) [Compound No. 169, 6-O-(3-Methyl-n-Butyryl)-3',4'-O-Benzylidene-Chartreusin] | – | ≥ 40 mg/kg | 202% | –
22 | COC1C(O)C(C)OC(OC2C(Oc3cccc4c(OC(=O)C(C)CN)c5c(=O)oc6ccc(C)c7c(=O)oc(c34)c5c67)OC(C)C3OC(c4cccc(F)c4)OC32)C1O (stereo not shown) [Compound No. 14] | – | ≥ 30 mg/kg | 195% | –
23 | COC1C(O)C(C)OC(OC2C(Oc3cccc4c(OC(=O)C5CC5)c5c(=O)oc6ccc(C)c7c(=O)oc(c34)c5c67)OC(C)C3OC(c4ccsc4)OC32)C1O (stereo not shown) [Compound No. 155] | 183% | ≥ 40 mg/kg | 171% | –
24 | COC1C(O)C(C)OC(OC2C(Oc3cccc4c(OC(=O)CNC(=O)c5ccccc5)c5c(=O)oc6ccc(C)c7c(=O)oc(c34)c5c67)OC(C)C3OC(C)(C)OC32)C1O (stereo not shown) [compound 88] | – | ≥ 100 mg/kg | – | response vs control in vivo at 50 mg/kg (P-388 leukemia cells; [3]): 157%
25 | COC1C(O)C(C)OC(OC2C(Oc3cccc4c(OC(=O)CCNC(C)=O)c5c(=O)oc6ccc(C)c7c(=O)oc(c34)c5c67)OC(C)C3OC(C)(C)OC32)C1O (stereo not drawn) [Compound No. 87, 6-O-(N-Acetyl-β-Alanyl)-3',4'-O-Isopropylidene-Chartreusin] | 134% | ≥ 100 mg/kg | – | response vs control in vivo at 80 mg/kg (P-388 leukemia cells; [3]): 183%
26 | COC1C(O)C(C)OC(OC2C(Oc3cccc4c(OC(=O)CCNC(=O)C(F)(F)F)c5c(=O)oc6ccc(C)c7c(=O)oc(c34)c5c67)OC(C)C3OC4(CCCCC4)OC32)C1O (stereo not shown) [compound 132] | 136% | ≥ 100 mg/kg | – | response vs control in vivo at 80 mg/kg (P-388 leukemia cells; [3]): 146%
27 | COc1ccc(C(=O)Oc2c3cccc(O[C@@H]4O[C@H](C)[C@@H]5OC(C)(C)O[C@@H]5[C@H]4O[C@H]4O[C@H](C)[C@H](O)[C@H](OC)[C@H]4O)c3c3oc(=O)c4c(C)ccc5oc(=O)c2c3c54)cc1 [compound 208] | 136% | ≥ 80 mg/kg | – | response vs control in vivo at 80 mg/kg (P-388 leukemia cells; [3]): 192%
